Among the data in ChEMBL document CHEMBL1131779, “Synthesis and evaluation of potential complement inhibitory semisynthetic analogs of oleanolic acid” (Bioorg Med Chem Lett, 1999) are Apoptotic activity, IC50 and TI values, retold here.

Test [1] in a line: The compound was tested for its apoptotic activity; no DNA migration observed. Type of test: functional.
In test [2] the test system is SK-MEL. In words: Compound was tested for its cytotoxicity against human malignant melanoma cell line SK-MEL; NA = Not active. Type of test: functional, cell-based.
For test [3], the species on record is Homo sapiens. In words: The compound was tested in vitro for its inhibition of the classical pathway activation of human complement; Not active. In kind it is functional.
Test [4] in a line: The compound was tested for its apoptotic activity; No DNA migration observed. In kind it is functional.
For test [5], the species on record is Homo sapiens. The experiment in a line: The compound was tested in vitro for its inhibition of the classical pathway activation of human complement. In kind it is functional.
A short description of test [6]: In vitro therapeutic index was determined. (Therapeutic index = IC50 cytotoxicity/IC50 complement inhibition). Type of test: functional.
Test [7] relates to SK-MEL. The experiment in a line: Compound was tested for its cytotoxicity against human malignant melanoma cell line SK-MEL. In kind it is functional, cell-based.

By IC50 is commonly meant the point on the concentration scale where inhibition reaches its midpoint. Higher therefore signals weaker potency. Regarding `CC(=O)O[C@H]1CC[C@]2(C)[C@H]3CC=C4[C@@H]5CC(C)(C)CC[C@]5(C(=O)O)CC[C@@]4(C)[C@]3(C)CC[C@H]2C1(C)C` [ACETYL OLEANOLIC ACID], the Apoptotic activity entry in test [1] is “no DNA migration observed”. Moreover, the half-inhibitory concentration (IC50) result in the test with SK-MEL [2] and in the test filed under Homo sapiens [3] was “Not Active” in each case.

Turning to `CC1(C)CC[C@]2(C(N)=O)CC[C@]3(C)C(=CCC4[C@@]5(C)CC[C@H](O)C(C)(C)C5CC[C@]43C)[C@@H]2C1` (some centres undefined), in test [4], the Apoptotic activity result was “No DNA migration observed”. Besides, the IC50 result with SK-MEL [2] and in the test filed under Homo sapiens [3] was “Not Active” each time.

With `CC1(C)CC[C@]2(C(=O)O)CC[C@]3(C)C(=CCC4[C@@]5(C)CC[C@H](OC(=O)COCC(=O)O)C(C)(C)C5CC[C@]43C)[C@@H]2C1` (some centres undefined), the figures for the IC50 in the test filed under Homo sapiens [5] and in the test with SK-MEL [7] were 31.4 µM and 93 µM, respectively. This molecule yielded a TI in test [6] of 2.96.

Take `CC1(C)CC[C@]2(C(=O)O)CC[C@]3(C)C(=CC[C@@H]4[C@@]5(C)CCC(=O)C(C)(C)[C@@H]5CC[C@]43C)[C@@H]2C1` [OLEANONIC ACID]: the figures for the IC50 result in the test filed under Homo sapiens [3] and with SK-MEL [7] were “Not Active” and 31 µM, respectively.

With `CC1(C)CC[C@]2(C(=O)O)CC[C@]3(C)C(=CC(=O)C4[C@@]5(C)CC[C@H](O)C(C)(C)C5CC[C@]43C)[C@@H]2C1` (some centres undefined), the IC50 amounted to 234 µM in the test filed under Homo sapiens [5] and 131 µM in the test on SK-MEL [7]. The TI in test [6] is on record as 0.56.

In the case of `CC1(C)CC[C@]2(C(=O)O)CC[C@]3(C)C(=CCC4[C@@]5(C)CC[C@H](OC(=O)CC(C)(C)C(=O)O)C(C)(C)C5CC[C@]43C)[C@@H]2C1` (some centres undefined), the values for the IC50 in the test filed under Homo sapiens [5] and in the test with SK-MEL [7] were 108 µM and 77 µM, respectively. Moreover, in test [6], the TI turned out to be 0.71.

For `COC(=O)[C@]12CCC(C)(C)C[C@H]1C1=CC[C@@H]3[C@@]4(C)CC[C@H](O)C(C)(C)[C@@H]4CC[C@@]3(C)[C@]1(C)CC2` [METHYL OLEANOLATE], in test [4], the Apoptotic activity entry is “No DNA migration observed”. Moreover, the IC50 entry in the test listed under Homo sapiens [3] was “Not Active”; with SK-MEL [7], 103 µM.

Turning to `CC1(C)CC[C@]2(C(=O)NCCCCCCCCCCC(=O)O)CC[C@]3(C)C(=CCC4[C@@]5(C)CC[C@H](O)C(C)(C)C5CC[C@]43C)[C@@H]2C1` (some centres undefined), the Apoptotic activity result in test [4] is “No DNA migration observed”. In addition, the IC50 entry in the test with SK-MEL [2] and in the test listed under Homo sapiens [3] was “Not Active” throughout.

`CC1(C)CC[C@]2(CO)CC[C@]3(C)C(=CCC4[C@@]5(C)CC[C@H](O)C(C)(C)C5CC[C@]43C)[C@@H]2C1` (some centres undefined): in test [4], the Apoptotic activity entry is “No DNA migration observed”. The IC50 entry in the test filed under Homo sapiens [3] was “Not Active”; in the test on SK-MEL [7], 105 µM.

Take `CC1(C)CC[C@]2(C(=O)NCCCCC(=O)O)CC[C@]3(C)C(=CCC4[C@@]5(C)CC[C@H](O)C(C)(C)C5CC[C@]43C)[C@@H]2C1` (some centres undefined): the IC50 in the test listed under Homo sapiens [5] is 31.8 µM; with SK-MEL [7], 127 µM. The TI in test [6] worked out at 3.99.

With `CC(=O)O[C@H]1CC[C@@]2(C)C(CC[C@]3(C)C2CC=C2[C@@H]4CC(C)(C)CC[C@]4(C(N)=O)CC[C@]23C)C1(C)C` (some centres undefined), in test [4], the Apoptotic activity entry is “No DNA migration observed”. Also, the results for the IC50 result in the test filed under Homo sapiens [3] and in the test on SK-MEL [7] were “Not Active” and 70 µM, respectively.

As for `C=C(C)[C@@H]1CC[C@]2(C(=O)O)CC[C@]3(C)[C@H](CC[C@@H]4[C@@]5(C)CC[C@H](O)C(C)(C)[C@@H]5CC[C@]43C)[C@@H]12` [BETULINIC ACID], the IC50 in the test listed under Homo sapiens [5] amounted to 577 µM; in the test on SK-MEL [7] it was 35 µM. This molecule also displayed a TI in test [6] of 0.06.

As to `CC1(C)CC[C@]2(C(=O)NCC(=O)O)CC[C@]3(C)C(=CC[C@@H]4[C@@]5(C)CC[C@H](O)C(C)(C)[C@@H]5CC[C@]43C)[C@@H]2C1`, the IC50 in the test filed under Homo sapiens [5] amounted to 146 µM; in the test with SK-MEL [7], 115 µM. Moreover, the Apoptotic activity entry in test [4] was “No DNA migration observed”. The molecule further registered a TI in test [6] of 0.78.

Regarding `CC1(C)CC[C@]2(C(=O)O)CC[C@]3(C)C(=CC[C@@H]4[C@@]5(C)CC[C@H](O)C(C)(C)[C@@H]5CC[C@]43C)[C@@H]2C1` [OLEANOLIC_ACID], the Apoptotic activity entry in test [1] was “no DNA migration observed”. Besides, the results for the IC50 in the test filed under Homo sapiens [5] and in the test with SK-MEL [7] were 72.3 µM and 112 µM, respectively. Besides, the TI in test [6] stood at 1.55.

Consider `CC(=O)O[C@H]1CC[C@@]2(C)C(CC[C@]3(C)C2C(=O)C=C2[C@@H]4CC(C)(C)CC[C@]4(C(=O)O)CC[C@]23C)C1(C)C` (some centres undefined), for which the Apoptotic activity result in test [4] is “No DNA migration observed”. In addition, the concentration for half-maximal inhibition (IC50) result in the test with SK-MEL [2] and in the test listed under Homo sapiens [3] was “Not Active” in each case.

Consider `CC(C)(CC(=O)O)CC(=O)O[C@H]1CC[C@@]2(C)C(CC[C@]3(C)C2CC=C2[C@@H]4CC(C)(C)CC[C@]4(C(=O)O)CC[C@]23C)C1(C)C` (some centres undefined), for which the IC50 turned out to be 103 µM in the test filed under Homo sapiens [5] and 86 µM in the test on SK-MEL [7]. The molecule also registered a TI in test [6] of 0.83.
